Laboratory results as given in patent US20220409617A1, “Drug Formulations and Methods of Treatment for Metabolic Disorders” (The Regents of the University of California, priority 2019, published 2022).
“Also recorded” adds a separate entry of the source.

Key:
[1] = Plasma pharmacokinetics in mice; type: in vivo; settings: mouse, po, single dose 120 mg/kg by gavage
Protocol: Plasma pharmacokinetic analysis of sphingolipid-like compound 893 was performed by Pharmaron Corporation (Beijing, China). C16:0 ceramide levels were quantified in cells using the method described in (T. Kasumov, et al., Anal. Biochem. 401: 154-161, 2010, the disclosure of which is incorporated herein by reference) with minor modifications. Cultured cells were washed twice in PBS and scraped into 250 μL of HPLC grade water and flash frozen until time of analysis. On the day of analysis, samples were thawed, and an aliquot used for protein quantification. For C16:0 ceramide levels in mouse liver, 25 mg of tissue was homogenized in 1 ml of ice-cold PBS using a mechanical probe homogenizer (VWR, Radnor, Pa.), protein levels quantified, and 50 μl of the homogenate diluted with 150 μl HPLC-grade water for C16:0 ceramide analysis. […] Samples were analyzed by ultra-performance liquid chromatography tandem mass spectrometry (UPLC-MS/MS) using a Waters Micromass Quattro Premier XE equipped with a Waters ACQUITY BEH C4 column (Waters Corp.). […] Standard curves prepared from C16:0 ceramide (#860516, Avanti Polar Lipids, Alabaster, Ala.) dissolved in ethanol were used for quantitation and were linear from 4.1 nM-1,000 nM, with an R^2 of 0.98 or greater.

[2] = system: mouse embryonic fibroblasts (MEFs); type: cell-based; settings: 3 h pre-treatment then palmitate 250 μM 3 h, 893 5 μM, myriocin 10 μM, fumonisin B1 30 μM, NAV-2729 12.5 μM, YM201636 800 nM, celastrol 500 nM
Protocol: Mitochondrial morphology was assessed by examining citrate synthesis expression under a high resolution microscopy. Specifically, the aspect ratio, branch length and roundness of mitochondria was assessed (FIG. 1).
LSL-KrasG12D mouse embryonic fibroblasts (MEFs) with and without Cre-mediated deletion of the STOP cassette were obtained from David Tuveson (Cold Spring Harbor Laboratory, Cold Spring Harbor N.Y., USA) in 2000. p53^flox/flox MEFs were derived in house (2015) from C57BL/6 mice using standard techniques and immortalized by transient expression of Cre recombinase and deletion of p53. MEFs were cultured and maintained in DMEM with 10% FBS and 1% penicillin-streptomycin. […] Stock solution of palmitic acid (ACROS Organics, cat # AC129702500) was prepared at 100 mM in ethanol. Palmitate (250 μM) was conjugated to 1% (w/v) fatty-acid free bovine serum albumin (Sigma, A8806) in DMEM at 37° C. for 20 min. For all immunofluorescence assays, 8,000 MEFs were seeded into 8-chamber slides (Cellvis, cat # C8-1.5H-N) 12-16 h before treatment. Cells were pre-treated with sphingolipid-like compound 893 (5 μM in water), myriocin (10 μM in methanol), fumonisin-B1 (30 μM in DMSO), or celastrol (500 nM in DMSO) for 3 h followed by a 3 h treatment with BSA-conjugated palmitate mixture or BSA alone.

Structure (SMILES): CCCCCCCCc1ccc([C@H]2CCN[C@@H]2CO)cc1.Cl [compound 893]
- Tmax [1]: 4 h
- half-life [1]: 636 min
- Protection from palmitate-induced mitochondrial fragmentation (aspect ratio, branch length, roundness) [2]: robust protection from both ceramide- and palmitate-induced mitochondrial fragmentation; also recorded: preserved a tubular, branched mitochondrial network in palmitate-treated cells
